Reference: PubChem BioAssay AID1963867 (Molecular Pharmacology Branch, DTP, NCI, 2024)

Tested on: KRAS-mutant PDC tumor spheroid with HUVEC/MSC, viability
Assay: Anticancer human tumor 327498-153-R-J2-PDC patient-derived uterine carcinosarcoma cell line growth inhibition [KRAS2]
Conditions: for IC50: curve of first compound; for viability, T/C: stronger effect = lower value
Source text: Multicellular complex tumor spheroid response to RAS pathway inhibitors in combination with a targeted agents in patient-derived cell lines with oncogenic KRAS variants from multiple cancer types
A high-throughput screen of multi-cell type tumor spheroids was designed to identify active combinations of targeted small molecules and KRAS pathway inhibitors. Complex spheroids include a stromal component modeled by human endothelial cells (HUVEC) and fibroblasts modeled by human mesenchymal stem cells (MSCs). The concentration ranges selected for each drug and investigational agent were based upon clinically achievable concentrations if the clinical Cmax of the agent was known.
Compounds. The drugs and investigational agents: BI-3406 (NSC825286), BAY-293 (NSC824723), batoprotafib (TNO155; NSC825523), sotorasib (AMG 510; NSC818433), MRTX1257 (NSC819558), elimusertib (BAY 1895344; NSC800525), molibresib (GSK525762; NSC774829), temuterkib (LY3214996; NSC803410), venetoclax (NSC766270), alisertib (NSC759677), olaparib (NSC753686), talazoparib (NSC767125), erdafitinib (NSC781556), ipatasertib (NSC767898), cabozantinib (NSC761068), nintedanib (NSC756659), abemaciclib (NSC768073), docetaxel (NSC628503), trametinib (NSC758246), and sapanisertib (NSC764658) were obtained from the National Cancer Institute (NCI) Developmental Therapeutics Program Chemical Repository. The FDA-approved anticancer drug set is available from the Developmental Therapeutics Program. […] The stock solutions were prepared in dimethyl sulfoxide (DMSO, Sigma-Aldrich, St. Louis, MO, cat. D2650) at 800-fold the tested concentration and stored at -70 degrees C prior to their use. All drugs and investigational agents were tested over a range starting from a high concentration at or near the clinical Cmax and decreasing in half-log increments. If the clinical Cmax for an agent had not been determined, the highest concentration tested was 10 microM.
Cell Culture. All cells were maintained in an incubator at 37 degrees C and 5% CO2 with 95% humidity. The PDC lines were cultured according to standard operating procedures established by the NCI PDMR (https://pdmr.cancer.gov/sops/default.htm). Briefly, all PDCs were thawed and cultured in Matrigel-coated flasks prepared with a working solution of 1X Ham's F-12 nutrient mix, without supplementation (Invitrogen, Waltham, MA, cat. 11765054), 100 U/mL penicillin-streptomycin (Invitrogen, cat. 15140122), and 2.5% Matrigel (Corning Inc., Corning, NY, cat. 354248) for the first three passages. All PDCs were cultured in complete DMEM/F-12 media containing advanced DMEM/F-12 (Invitrogen, cat. 12634028), 4.9% defined fetal bovine serum, heat inactivated (HyClone Laboratories Inc., Logan, UT, cat. SH30070.03HI), 389 ng/mL hydrocortisone (Sigma-Aldrich, cat. H4001), 9.7 ng/mL human EGF recombinant protein (Invitrogen, cat. PHG0313), 23.4 microg/mL adenine (Sigma-Aldrich, cat. A2786), 97.3 U/mL penicillin-streptomycin (Invitrogen, cat. 15140122), 1.9 mM L-glutamine (Invitrogen, cat. 25030081), and 9.7 microM Y-27632 dihydrochloride (Tocris Bioscience, Bristol, United Kingdom, cat. 1254). The PDCs were cultured in complete DMEM/F12 media without 9.7 microM Y-27632 dihydrochloride for at least two passages prior to the screen. The established cell line HOP-62 was cultured in RPMI 1640 medium, HEPES (Invitrogen, cat. 22400105) with 10% defined fetal bovine serum (HyClone Laboratories Inc., cat. SH30070.03) and 2 mM L-glutamine (Invitrogen, cat. 25030081). The pooled donor HUVEC were cultured in endothelial cell growth medium 2 (PromoCell, Heidelberg, Germany, cat. C-22011) and the hMSC were cultured in mesenchymal stem cell growth medium 2 (PromoCell, cat. C-28009). For all experiments, HUVEC and hMSC were used at passages </=5, while the malignant cell lines were used at passages </=15. […]

[1] = second compound 0.1 µM, first compound 0.0316 µM
[2] = second compound 0.1 µM, first compound 0.1 µM
[3] = second compound 0.1 µM, first compound 0.316 µM
[4] = second compound 0.1 µM, first compound 1 µM
[5] = second compound 0.1 µM, first compound 3.16 µM
[6] = second compound 0.1 µM, first compound 10 µM
[7] = second compound 0.316 µM, first compound 0.0316 µM
[8] = second compound 0.316 µM, first compound 0.1 µM
[9] = second compound 0.316 µM, first compound 0.316 µM
[10] = second compound 0.316 µM, first compound 1 µM
[11] = second compound 0.316 µM, first compound 3.16 µM
[12] = second compound 0.316 µM, first compound 10 µM
[13] = second compound 1 µM, first compound 0.0316 µM
[14] = second compound 1 µM, first compound 0.1 µM
[15] = second compound 1 µM, first compound 0.316 µM
[16] = second compound 1 µM, first compound 1 µM
[17] = second compound 1 µM, first compound 3.16 µM
[18] = second compound 1 µM, first compound 10 µM
[19] = second compound 3.16 µM, first compound 0.0316 µM
[20] = second compound 3.16 µM, first compound 0.1 µM
[21] = second compound 3.16 µM, first compound 0.316 µM
[22] = second compound 3.16 µM, first compound 1 µM
[23] = second compound 3.16 µM, first compound 3.16 µM
[24] = second compound 3.16 µM, first compound 10 µM
[25] = second compound 10 µM, first compound 0.0316 µM
[26] = second compound 10 µM, first compound 0.1 µM
[27] = second compound 10 µM, first compound 0.316 µM
[28] = second compound 10 µM, first compound 1 µM
[29] = second compound 10 µM, first compound 3.16 µM
[30] = second compound 10 µM, first compound 10 µM
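Note: spheroids exposed to agents for seven days before reading.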
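Throughout, for viability, T/C: 100% = DMSO vehicle wells so lower means fewer viable cells.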

Compound	IC50 (second compound 0.1 µM)	IC50 (second compound 0.316 µM)	IC50 (second compound 1 µM)	IC50 (second compound 3.16 µM)	IC50 (second compound 10 µM)	viability, T/C [1]	viability, T/C [2]	viability, T/C [3]	viability, T/C [4]	viability, T/C [5]	viability, T/C [6]	viability, T/C [7]	viability, T/C [8]	viability, T/C [9]	viability, T/C [13]	viability, T/C [14]	viability, T/C [19]	viability, T/C [20]	viability, T/C [25]	viability, T/C [26]	further results
CC1(C)CCC(CN2CCN(c3ccc(C(=O)NS(=O)(=O)c4ccc(NCC5CCOCC5)c([N+](=O)[O-])c4)c(Oc4cnc5[nH]ccc5c4)c3)CC2)=C(c2ccc(Cl)cc2)C1 + C=CC(=O)N1CCN(c2nc(=O)n(-c3c(C)ccnc3C(C)C)c3nc(-c4c(O)cccc4F)c(F)cc23)C(C)C1	1300 nM	1740 nM	1580 nM	1210 nM	< 31.6 nM	65.7%	61.1%	54%	57.4%	36.5%	1.21%	57%	54.5%	58.1%	60.7%	55.2%	52.6%	53.5%	43.2%	41.6%	viability, T/C [10]: 57.5%; viability, T/C [11]: 42.7%; viability, T/C [12]: 6.41%; viability, T/C [15]: 57.4%; viability, T/C [16]: 52.2%; viability, T/C [17]: 44.3%; viability, T/C [18]: 1.34%; viability, T/C [21]: 53.2%; viability, T/C [22]: 52.6%; viability, T/C [23]: 37.4%; viability, T/C [24]: 0.58%; viability, T/C [27]: 37.8%; viability, T/C [28]: 46.5%; viability, T/C [29]: 10.5%; viability, T/C [30]: 2.01%
COC(=O)c1ccc2c(C(=Nc3ccc(N(C)C(=O)CN4CCN(C)CC4)cc3)c3ccccc3)c(O)[nH]c2c1 + COc1cc2nc(C)nc(NC(C)c3cc(N)cc(C(F)(F)F)c3)c2cc1OC1CCOC1	2160 nM	490 nM	648 nM	585 nM	280 nM	94.6%	77.2%	72.2%	83.7%	33.9%	34.5%	73%	65.1%	57%	62%	59%	69.5%	69.6%	54.2%	58.9%	viability, T/C [10]: 40.4%; viability, T/C [11]: 29%; viability, T/C [12]: 24.8%; viability, T/C [15]: 64.3%; viability, T/C [16]: 42.9%; viability, T/C [17]: 25.5%; viability, T/C [18]: 20.4%; viability, T/C [21]: 60.9%; viability, T/C [22]: 39.3%; viability, T/C [23]: 19.9%; viability, T/C [24]: 0.17%; viability, T/C [27]: 47.1%; viability, T/C [28]: 27.2%; viability, T/C [29]: 2.2%; viability, T/C [30]: 0.22%
CN(C)C/C=C/C(=O)Nc1cc2c(Nc3ccc(F)c(Cl)c3)ncnc2cc1O[C@H]1CCOC1 + CNCc1ccccc1-c1csc(C(C)Nc2nc(C)nc3cc(OC)c(OC)cc23)c1	> 100 nM	> 100 nM	> 100 nM	1.72 nM	< 0.316 nM	71.5%	77.4%	–	–	–	–	65.8%	64%	–	58.2%	65.7%	22.6%	21.1%	1.73%	0.36%	viability, T/C (second compound 0.1 µM, first compound 0.000316 µM): 87.9%; viability, T/C (second compound 0.1 µM, first compound 0.001 µM): 79.1%; viability, T/C (second compound 0.1 µM, first compound 0.00316 µM): 79.7%; viability, T/C (second compound 0.1 µM, first compound 0.01 µM): 81%; viability, T/C (second compound 0.316 µM, first compound 0.000316 µM): 78.9%; viability, T/C (second compound 0.316 µM, first compound 0.001 µM): 67.8%; viability, T/C (second compound 0.316 µM, first compound 0.00316 µM): 73.9%; viability, T/C (second compound 0.316 µM, first compound 0.01 µM): 67.2%; viability, T/C (second compound 1 µM, first compound 0.000316 µM): 76.6%; viability, T/C (second compound 1 µM, first compound 0.001 µM): 67.9%; viability, T/C (second compound 1 µM, first compound 0.00316 µM): 64%; viability, T/C (second compound 1 µM, first compound 0.01 µM): 73.4%; viability, T/C (second compound 3.16 µM, first compound 0.000316 µM): 62.1%; viability, T/C (second compound 3.16 µM, first compound 0.001 µM): 51.1%; viability, T/C (second compound 3.16 µM, first compound 0.00316 µM): 42.6%; viability, T/C (second compound 3.16 µM, first compound 0.01 µM): 1.18%; viability, T/C (second compound 10 µM, first compound 0.000316 µM): 0.49%; viability, T/C (second compound 10 µM, first compound 0.001 µM): 0.76%; viability, T/C (second compound 10 µM, first compound 0.00316 µM): 0.34%; viability, T/C (second compound 10 µM, first compound 0.01 µM): 0.27%
O=C(c1cc(Cc2n[nH]c(=O)c3ccccc23)ccc1F)N1CCN(C(=O)C2CC2)CC1 + C=CC(=O)N1CCN(c2nc(=O)n(-c3c(C)ccnc3C(C)C)c3nc(-c4c(O)cccc4F)c(F)cc23)C(C)C1	970 nM	713 nM	588 nM	488 nM	< 31.6 nM	60.2%	57.3%	65.3%	48.8%	23.6%	16.3%	59.5%	59.4%	57.5%	66.3%	60.1%	66%	61.2%	49.5%	48.2%	viability, T/C [10]: 46.8%; viability, T/C [11]: 21.9%; viability, T/C [12]: 15.2%; viability, T/C [15]: 56%; viability, T/C [16]: 46.2%; viability, T/C [17]: 26.5%; viability, T/C [18]: 16.4%; viability, T/C [21]: 51.7%; viability, T/C [22]: 46.4%; viability, T/C [23]: 22.6%; viability, T/C [24]: 18.2%; viability, T/C [27]: 47.3%; viability, T/C [28]: 36.3%; viability, T/C [29]: 24.8%; viability, T/C [30]: 18.9%
